Several values for one entry are separate records, joined by “and”; a condition that tells them apart may be missing. Identical values can stand only once. Like-named read-outs stand apart in the source and are kept apart here.
Molecular target: hCB2 (Homo sapiens, UniProt P34972)
Assay: bioSensAll ebBRET signaling profiling, hCB2
Format: cell-based
Set-up: host or cells: HEK293SL cells, transient PEI transfection
Conditions: for G13 hCB2 / G15 hCB2 / Gq hCB2 / Gs hCB2: raw signal; for EC50: read-out: EC50 [95% CI]; for Emax: normalized to CP-55,940

Chain of hCB2 (P34972 whole entry): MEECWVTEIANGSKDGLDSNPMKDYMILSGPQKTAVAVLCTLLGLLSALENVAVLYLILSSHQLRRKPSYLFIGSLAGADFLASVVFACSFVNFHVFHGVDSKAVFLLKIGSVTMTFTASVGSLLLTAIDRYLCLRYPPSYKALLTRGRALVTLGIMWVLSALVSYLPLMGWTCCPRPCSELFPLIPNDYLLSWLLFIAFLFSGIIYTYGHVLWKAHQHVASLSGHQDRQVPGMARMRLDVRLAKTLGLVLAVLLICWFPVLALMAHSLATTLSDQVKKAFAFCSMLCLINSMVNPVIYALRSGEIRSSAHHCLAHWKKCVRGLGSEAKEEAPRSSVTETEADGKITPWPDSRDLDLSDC

## COC(=O)C(C)(NC(=O)c1cc(C)n(-c2cccc(C(F)(F)F)c2)n1)c1cccs1 (stereo not drawn) [‘4042]
Log [Compound] (M) -5.05788
  G13 hCB2: 372
  G15 hCB2: 871
  Gq hCB2: 1851
  Gs hCB2: 9765
Log [Compound] (M) -5.47381
  G13 hCB2: 454
  G15 hCB2: 873
  Gq hCB2: 1786
  Gs hCB2: 9415
Log [Compound] (M) -5.89285
  G13 hCB2: 417
  G15 hCB2: 919
  Gq hCB2: 1814
  Gs hCB2: 9299
Log [Compound] (M) -6.31878
  G13 hCB2: 379
  G15 hCB2: 911
  Gq hCB2: 1840
  Gs hCB2: 9425
Log [Compound] (M) -6.72585
  G13 hCB2: 366
  G15 hCB2: 869
  Gq hCB2: 1780
  Gs hCB2: 9320
Log [Compound] (M) -7.14267
  G13 hCB2: 378
  G15 hCB2: 865
  Gq hCB2: 1798
  Gs hCB2: 9628
Log [Compound] (M) -7.55284
  G13 hCB2: 351
  G15 hCB2: 908
  Gq hCB2: 1838
  Gs hCB2: 9429
Log [Compound] (M) -8
  G13 hCB2: 336
  G15 hCB2: 870
  Gq hCB2: 1691
  Gs hCB2: 9233
Log [Compound] (M) -8.22186
  G13 hCB2: 337
  G15 hCB2: 953
  Gq hCB2: 1914
  Gs hCB2: 10090
Log [Compound] (M) -8.39794
  G13 hCB2: 386
  G15 hCB2: 901
  Gq hCB2: 1867
  Gs hCB2: 9624
Log [Compound] (M) -8.68787
  G13 hCB2: 351
  G15 hCB2: 876
  Gq hCB2: 1937
  Gs hCB2: 9194
Log [Compound] (M) -9.15521
  G13 hCB2: 367
  G15 hCB2: 910
  Gq hCB2: 1811
  Gs hCB2: 9196
Log [Compound] (M) -9.61989
  G13 hCB2: 345
  G15 hCB2: 880
  Gq hCB2: 1785
  Gs hCB2: 9153
Log [Compound] (M) -10.0969
  G13 hCB2: 341
  G15 hCB2: 856
  Gq hCB2: 1790
  Gs hCB2: 9401
Log [Compound] (M) -10.5529
  G13 hCB2: 309
  G15 hCB2: 917
  Gq hCB2: 1878
  Gs hCB2: 9283
Log [Compound] (M) -11.0177
  G13 hCB2: 377
  G15 hCB2: 837
  Gq hCB2: 1802
  Gs hCB2: 9354
Log [Compound] (M) -11.4949
  G13 hCB2: 335
  G15 hCB2: 822
  Gq hCB2: 1866
  Gs hCB2: 8977
Log [Compound] (M) -11.9208
  G13 hCB2: 361
  G15 hCB2: 904
  Gq hCB2: 1780
  Gs hCB2: 8976
Log [Compound] (M) -12.3979
  G13 hCB2: 355
  G15 hCB2: 851
  Gq hCB2: 1758
  Gs hCB2: 8977
Log [Compound] (M) -12.8861
  G13 hCB2: 299
  G15 hCB2: 809
  Gq hCB2: 1793
  Gs hCB2: 9246
Log [Compound] (M) -13
  G13 hCB2: 267 and 381
  G15 hCB2: 851 and 879
  Gq hCB2: 1807 and 1732
  Gs hCB2: 9386 and 9439
hCB2 Barr2 + GRK2
  EC50: 5.5 nM
hCB2 Gi1
  EC50: 2.7 nM
hCB2 Gi2
  EC50: 1.3 nM
hCB2 GoB
  EC50: 2.5 nM
read-out: Emax [95% CI], hCB2 Barr2 + GRK2
  Emax: 33%
read-out: Emax [95% CI], hCB2 Gi1
  Emax: 82%
read-out: Emax [95% CI], hCB2 Gi2
  Emax: 70%
read-out: Emax [95% CI], hCB2 GoB
  Emax: 61%
read-out: Emax [95% CI], hCB2 Gz
  Emax: 56%
